The test system of test [1] is Enterococcus faecium ATCC BAA-2320. Kind of test: microbe, parasite or virus in culture. Format: cell-based. The following applies: Enterococcus faecium, ATCCBAA2320. On the procedure: (§1) The antibacterial potency of Compound 34 was measured using the in vitro broth microdilution assay under assay conditions described by the Clinical and Laboratory Standards Institute. […] The test substance was dissolved in 100% DMSO (unless stated below), suspended completely by sonication or vortexing, diluted by 2-fold serial titrations in the same vehicle, for a total of 10 test concentrations (final concentrations: 100, 50, 25, 12.5, 6.25, 3.125, 1.56, 0.78, 0.39, 0.2 μM). A 4 μL aliquot of each dilution was added to 196 μL of broth medium seeded with the organism suspension in wells of a 96 well plate (bacterial count: 2-8×10^5 colony forming units/mL final). The final volume was 200 μL in each well and the final DMSO concentration was 2 percent. The incubation time is either 1 or 2 days at 36° C. All strains tested underwent aerobic respiration, except for ATCC BAA-1805 and ATCC 29399. Following incubation, the test plates were visually examined and wells were scored for growth or complete growth inhibition to define the minimum inhibitory concentration. Each test substance was evaluated in duplicate and the results below are the duplicate test values. Vehicle-control and an active reference agent were used as blank and positive controls, respectively.

The subject of test [2] is Enterococcus faecalis ATCC 51299. Kind of test: microbe, parasite or virus in culture. Type of test: cell-based. The following applies: Enterococcus faecalis, ATCC51299. How it is done:
as §1

Each structure is given as a SMILES string. Values joined by “and” are separate entries in the source; they are usually repeats but may differ in a detail not shown here. Equal entries are not always repeated.

As for `CN(C)c1cc(NC(=O)CNC(C)(C)C)c(O)c2c1C[C@H]1C[C@H]3[C@H](N(C)C)C(O)=C(C(N)=O)C(=O)[C@@]3(O)C(O)=C1C2=O` [Tigecycline], the MIC in test [1] is 0.063 µg/mL and 0.11 µM; in test [2], 0.063 µg/mL and 0.11 µM.

The values are drawn from patent US20200157144A1, “ANTIMICROBIAL PEPTIDOMIMETICS” (priority 2017, published 2020).
